Here are results for 22 compounds from US12084472B2 (Ardelyx, Inc., priority 2015, dated 2024).

For the test, the target named is T1, human TGR5 (Homo sapiens, UniProt Q8TDU6).
T1 construct: expressed in transfected cells; host or cells: HEK293
T1 sequence (Q8TDU6 1-330): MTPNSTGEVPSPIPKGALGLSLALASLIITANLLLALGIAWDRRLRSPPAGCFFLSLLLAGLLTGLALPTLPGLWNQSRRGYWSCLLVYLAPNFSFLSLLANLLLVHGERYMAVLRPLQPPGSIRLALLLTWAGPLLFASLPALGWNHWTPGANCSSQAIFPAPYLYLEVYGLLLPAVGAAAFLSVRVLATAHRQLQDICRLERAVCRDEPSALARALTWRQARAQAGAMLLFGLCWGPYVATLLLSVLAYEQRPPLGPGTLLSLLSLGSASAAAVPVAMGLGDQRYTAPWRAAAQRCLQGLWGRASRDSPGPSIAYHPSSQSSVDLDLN
Briefly: Cell-based TGR5 assay (cAMP generation, HTRF). As to conditions: HEK293 cells stably transfected with human TGR5; cAMP by HTRF; 30 minutes at 37° C.; read-out: pEC50 Human TGR5 (converted). The method, boiled down:
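Read-out was HTRF detection of cAMP, converted to concentration via a standard curve and fitted (3-parameter logistic) for pEC50 and maximal response. Agonist stimulation used HEK293 cells stably transfected with human TGR5, incubated 30 min at 37° C in IBMX-containing buffer at 0.05 nM to 10 μM compound.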
As to `CN(C)C(=O)c1ccc(Cl)c(COC2(c3cnccc3-c3ccccc3OC3CC3)CC2)c1` [Compound I-725, 4-Chloro-3-((1-(4-(2-cyclopropoxyphenyl)pyridin-3-yl)cyclopropoxy)methyl)-N,N-dimethylbenzamide], the EC50 was 126 to 1000 nM.
Turning to `CC(CCCCC(=O)NC[C@H](O)[C@@H](O)[C@H](O)[C@H](O)CO)c1ccc(Cl)c(CNC2(c3cnccc3-c3ccccc3OC3CC3)CC2)c1` (stereo partly drawn) [Compound I-317, 6-{4-chloro-3-[({1-[4-(2-cyclopropoxyphenyl)pyridin-3-yl]cyclopropyl}amino)methyl]phenyl}-N-[(2S,3R,4R,5R)-2,3,4,5,6-pentahydroxyhexyl]heptanamide], the EC50 was less than 100 nM.
As to `O=C(NC[C@H](O)[C@@H](O)[C@H](O)[C@H](O)CO)N(CCCCc1cc(Cl)c(COC2(c3cnccc3-c3ccccc3OC3CC3)CC2)cc1Cl)CCOCCO` [Compound I-86, 1-(4-(2,5-dichloro-4-((1-(4-(2-cyclopropoxyphenyl)pyridin-3-yl)cyclopropoxy)methyl)phenyl)butyl)-1-(2-(2-hydroxyethoxy)ethyl)-3-((2S,3R,4R,5R)-2,3,4,5,6-pentahydroxyhexyl)urea], the EC50 was less than 100 nM.
In the case of `O=C1NCCN1CCN(CCCSc1ccc(Cl)c(CNC2(c3cnccc3-c3ccccc3OC3CC3)CC2)c1)C(=O)[C@@H](O)[C@@H](O)[C@H](O)[C@@H](O)CO` [Compound I-531, (2S,3S,4R,5S)-N-[3-({4-chloro-3-[({1-[4-(2-cyclopropoxyphenyl)pyridin-3-yl]cyclopropyl}amino)methyl]phenyl}sulfanyl)propyl]-2,3,4,5,6-pentahydroxy-N-[2-(2-oxoimidazolidin-1-yl)ethyl]hexanamide] it was 126 to 1000 nM; in that of `FC(F)(F)Oc1ccccc1-c1ccncc1C1(NCc2cc(Cl)ccc2Cl)CC1` [Compound I-11], 126 to 1000 nM.
With `CC(CCCC(=O)N(CC(=O)N(C)C)C[C@H](O)[C@@H](O)[C@H](O)[C@H](O)CO)c1ccc(Cl)c(CNC2(c3cnccc3-c3ccccc3OC3CC3)CC2)c1` (stereo partly drawn) [Compound I-340, 5-{4-chloro-3-[({1-[4-(2-cyclopropoxyphenyl)pyridin-3-yl]cyclopropyl}amino)methyl]phenyl}-N-[(dimethylcarbamoyl)methyl]-N-[(2S,3R,4R,5R)-2,3,4,5,6-pentahydroxyhexyl]hexanamide] the figure was 126 to 1000 nM; with `O=C(CCCCc1cc(Cl)c(COC2(c3cnccc3-c3ccccc3OC3CC3)CC2)cc1Cl)N(Cc1ccccc1)C[C@@H](O)[C@H](O)[C@H](O)[C@H](O)CO` [Compound I-120, N-benzyl-5-(2,5-dichloro-4-((1-(4-(2-cyclopropoxyphenyl)pyridin-3-yl)cyclopropoxy)methyl)phenyl)-N-((2R,3S,4R,5R)-2,3,4,5,6-pentahydroxyhexyl)pentanamide], 126 to 1000 nM; with `Cc1ccc(SCCCCN(CCCS(C)(=O)=O)C(=O)[C@@H](O)[C@@H](O)[C@H](O)[C@@H](O)CO)cc1COC1(c2cnccc2-c2ccccc2OC2CC2)CC1` [Compound I-561, (2S,3S,4R,5S)-N-(4-{[3-({1-[4-(2-cyclopropoxyphenyl)pyridin-3-yl]cyclopropoxy}methyl)-4-methylphenyl]sulfanyl}butyl)-2,3,4,5,6-pentahydroxy-N-(3-methanesulfonylpropyl)hexanamide], 126 to 1000 nM.
In the case of `O=C(O)[C@@H](O)[C@@H](O)[C@H](O)[C@@H](O)CNC1CCN(C(=O)CCCCc2cc(Cl)c(COC3(c4cnccc4-c4ccccc4OC4CC4)CC3)cc2Cl)CC1` (stereo in doubt) [Compound I-173, (2S,3S,4R,5S)-6-[(1-{5-[2,5-dichloro-4-({1-[4-(2-cyclopropoxyphenyl)pyridin-3-yl]cyclopropoxy}methyl)phenyl]pentanoyl}piperidin-4-yl)amino]-2,3,4,5-tetrahydroxyhexanoic acid] it was less than 100 nM; in that of `C[C@H](CCCC(=O)O)c1ccc(Cl)c(CNC2(c3cnccc3-c3ccccc3OC3CC3)CC2)c1` (single isomer, unassigned) [Compound I-247], less than 100 nM; in that of `Cc1cc(COC2(c3cnccc3-c3ccccc3OC3CC3)CC2)c(Cl)cc1CCCCNC(=O)N[C@@H](CCCNC(=N)N)C(=O)O` [Compound I-113, (2S)-5-carbamimidamido-2-[({4-[5-chloro-4-({1-[4-(2-cyclopropoxyphenyl)pyridin-3-yl]cyclopropoxy}methyl)-2-methylphenyl]butyl}carbamoyl)amino]pentanoic acid], less than 100 nM.
For the compound `CC(CCCC(=O)N(CCO)C[C@H](O)[C@@H](O)[C@H](O)[C@H](O)CO)c1ccc(Cl)c(COC2(c3cnccc3-c3ccccc3OC3CC3)CC2)c1` (stereo partly drawn) [Compound I-374, 5-[4-chloro-3-({1-[4-(2-cyclopropoxyphenyl)pyridin-3-yl]cyclopropoxy}methyl)phenyl]-N-(2-hydroxyethyl)-N-[(2S,3R,4R,5R)-2,3,4,5,6-pentahydroxyhexyl]hexanamide], the EC50 was less than 100 nM.
As for `CN(C[C@H](O)[C@@H](O)[C@H](O)[C@H](O)CO)C(=O)CCCCc1cc(Cl)c(CNC2(c3cnccc3-c3ccccc3OC3COC3)CC2)cc1Cl` [Compound I-177, 5-(2,5-dichloro-4-{[(1-(4-[2-(oxetan-3-yloxy)phenyl]pyridin-3-yl}cyclopropyl)amino]methyl)phenyl)-N-methyl-N-[(2S,3R,4R,5R)-2,3,4,5,6-pentahydroxyhexyl]pentanamide], the EC50 is less than 100 nM.
For the compound `O=C(NCCCC1(c2ccc(Cl)c(CNC3(c4cnccc4-c4ccccc4OC4CC4)CC3)c2)CC1)NC[C@H](O)[C@@H](O)[C@H](O)[C@H](O)CO` [Compound I-385, 1-[3-(1-{4-chloro-3-[({1-[4-(2-cyclopropoxyphenyl)pyridin-3-yl]cyclopropyl}amino)methyl]phenyl}cyclopropyl)propyl]-3-[(2S,3R,4R,5R)-2,3,4,5,6-pentahydroxyhexyl]urea], the EC50 is less than 100 nM.
Turning to `O=C(CCCSc1ccc(Cl)c(COC2(c3cnccc3-c3ccccc3OC3CC3)CC2)c1)N(CCS(=O)(=O)N1CCOCC1)C[C@H](O)[C@@H](O)[C@H](O)[C@H](O)CO` [Compound I-686, 4-{[4-chloro-3-({1-[4-(2-cyclopropoxyphenyl)pyridin-3-yl]cyclopropoxy}methyl)phenyl]sulfanyl}-N-[2-(morpholine-4-sulfonyl)ethyl]-N-[(2S,3R,4R,5R)-2,3,4,5,6-pentahydroxyhexyl]butanamide], the EC50 is 126 to 1000 nM.
With `CN(C[C@H](O)[C@@H](O)[C@H](O)[C@H](O)CO)C(=O)CC1(CSc2ccc(Cl)c(COC3(c4cnccc4-c4ccccc4OC4CC4)CC3)c2)CC1` [Compound I-679, 2-[1-({[4-chloro-3-({1-[4-(2-cyclopropoxyphenyl)pyridin-3-yl]cyclopropoxy}methyl)phenyl]sulfanyl}methyl)cyclopropyl]-N-methyl-N-[(2S,3R,4R,5R)-2,3,4,5,6-pentahydroxyhexyl]acetamide] the figure was less than 100 nM; with `CCCN(CCCCc1cc(Cl)c(COC2(c3cnccc3-c3ccccc3OC3CC3)CC2)cc1Cl)C(=O)[C@@H](O)[C@@H](O)[C@H](O)[C@@H](O)CO` [Compound I-205, (2S,3S,4R,5S)-N-{4-[2,5-dichloro-4-({1-[4-(2-cyclopropoxyphenyl)pyridin-3-yl]cyclopropoxy}methyl)phenyl]butyl}-2,3,4,5,6-pentahydroxy-N-propylhexanamide], less than 100 nM.
For the compound `CC(CCCC(=O)N1CCN(CCNC(=O)NC[C@H](O)[C@@H](O)[C@H](O)[C@H](O)CO)CC1)c1ccc(Cl)c(CNC2(c3cnccc3-c3ccccc3OC3CC3)CC2)c1` (stereo partly drawn) [Compound I-323, 1-{2-[4-(5-{4-chloro-3-[({1-[4-(2-cyclopropoxyphenyl)pyridin-3-yl]cyclopropyl}amino)methyl]phenyl}hexanoyl)piperazin-1-yl]ethyl}-3-[(2S,3R,4R,5R)-2,3,4,5,6-pentahydroxyhexyl]urea], the EC50 was less than 100 nM.
In the case of `C[C@@H](CCCC(=O)N(C)C[C@H](O)[C@@H](O)[C@H](O)[C@H](O)CO)c1ccc(Cl)c(CNC2(c3cnccc3-c3ccccc3OC3CC3)CC2)c1` (single isomer, unassigned) [Compound I-325] it was less than 100 nM; in that of `Fc1ccccc1-c1ccncc1C1(NCc2cc(Cl)ccc2Cl)CC1` [Compound I-17, N-[(2,5-dichlorophenyl)methyl]-1-[4-(2-fluorophenyl)pyridin-3-yl]cyclopropan-1-amine], 1260 to 10000 nM.
With `Cc1ccc(SCCCC(=O)NC[C@H](O)[C@@H](O)[C@H](O)[C@H](O)CO)nc1CNC1(c2cnccc2-c2ccccc2OC2CC2)CC1` [Compound I-653, 4-({6-[({1-[4-(2-cyclopropoxyphenyl)pyridin-3-yl]cyclopropyl}amino)methyl]-5-methylpyridin-2-yl}sulfanyl)-N-[(2S,3R,4R,5R)-2,3,4,5,6-pentahydroxyhexyl]butanamide] the figure was 1260 to 10000 nM; with `N[C@@H](CCCCNS(=O)(=O)c1ccc(COC2(c3cnccc3-c3ccccc3OC3CC3)CC2)c(Cl)c1)C(=O)O` [Compound I-484, (S)-2-amino-6-(3-chloro-4-((1-(4-(2-cyclopropoxyphenyl)pyridine-3-yl)cyclopropoxy)methyl)phenylsulfonamido)hexanoic acid], less than 100 nM.
